Square brackets hold non-standard residues; d marks the D form. Ends that are not written are not given here. Peptide text beside a SMILES is read from it. * marks the point of attachment. Arg(NO2) = N=C(NCCC[C@H](N)C(=O)O)N[N+](=O)[O-]; NHCH2CH2(piperidin-1-yl) = C1CCN(CCN*)CC1; Benzofuran(2-CO) = O=C(c1cc2ccccc2o1)*; Imidazole4carbonyl = O=C(c1cnc[nH]1)*; Isoxazole(3-carbonyl) = O=C(c1ccon1)*; Cha = N[C@@H](CC1CCCCC1)C(=O)O; Nicotinoyl = O=C(c1cccnc1)*; Picolinoyl = O=C(c1ccccn1)*; 2Furoyl = O=C(c1ccco1)*; X1 = Cc1cc(C(=O)*)oc1C; X2 = O=C(c1ccc(Br)o1)*; Bz = O=C(c1ccccc1)*
T1: PAR-2 (Homo sapiens, UniProt P55085)
T1 sequence (P55085 26-397): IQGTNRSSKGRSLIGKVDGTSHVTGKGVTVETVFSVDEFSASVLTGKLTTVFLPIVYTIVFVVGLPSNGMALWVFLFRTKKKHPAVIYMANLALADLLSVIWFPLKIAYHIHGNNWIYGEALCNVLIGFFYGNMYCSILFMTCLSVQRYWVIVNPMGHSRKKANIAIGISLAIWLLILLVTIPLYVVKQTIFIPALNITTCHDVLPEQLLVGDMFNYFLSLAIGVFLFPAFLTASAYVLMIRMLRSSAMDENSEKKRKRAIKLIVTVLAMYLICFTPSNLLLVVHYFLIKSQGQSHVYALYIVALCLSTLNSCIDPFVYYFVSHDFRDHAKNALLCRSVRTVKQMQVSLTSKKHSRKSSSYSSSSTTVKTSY

T2: human PAR-2 (Protease-activated receptor-2) (human, UniProt P55085 37-397)
T2 sequence (looked up): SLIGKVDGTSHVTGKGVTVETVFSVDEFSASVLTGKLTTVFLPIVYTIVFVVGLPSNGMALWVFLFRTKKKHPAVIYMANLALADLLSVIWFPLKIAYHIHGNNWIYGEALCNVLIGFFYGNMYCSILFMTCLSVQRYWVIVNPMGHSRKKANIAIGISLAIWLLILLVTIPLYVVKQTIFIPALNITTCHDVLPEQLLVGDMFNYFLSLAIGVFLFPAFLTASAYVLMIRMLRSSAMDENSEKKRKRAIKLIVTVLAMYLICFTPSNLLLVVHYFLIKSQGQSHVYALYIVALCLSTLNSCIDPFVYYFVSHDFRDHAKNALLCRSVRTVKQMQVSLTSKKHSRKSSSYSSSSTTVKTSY


Molecular target: T1, PAR-2
Assay: not given
Settings: relative to TRAP (tethered receptor agonist peptide); cited from earlier work

| Molecule | PAR-2 activation, action strength relative to TRAP |
| --- | --- |
| CC(C)C[C@H](NC(=O)[C@H](CCCNC(=N)N[N+](=O)[O-])NC(=O)c1ccccc1)C(N)=O [N^60-benzoyl-Arg(NO2)-Leu-NH2] (Bz-[Arg(NO2)]-Leu-NH2) | about one of hundred action strength of TRAP |

Molecular target: T1, PAR-2
Assay: Intracellular calcium dynamics assay (modified Hawthorne et al. method) in HCT-15 cells
Format: cell-based
Design: endogenous in cells; host or cells: HCT-15 human colorectal adenocarcinoma cells
Settings: not given
Excerpt: The PAR-2 activation of peptide derivatives represented by the general formula (1) can be tested by known various methods. For example, PAR-2 activation of peptide derivates can be tested by the methods namely, “Hollenberg method” (Hollenberg, M. D., et al., Can. J. Physiol. Pharmacol., 75, 832-841 (1997)), “Kawabata et al. method” (Kawabata, A., et al., J. Pharmacol. Exp. Ther., 288, 358-370 (1999)), “Howthorne et al. method” (Howthorne et al., A High-Throughput Microtiter Plate-Based Calcium Assay for the Study of Protease-Activated Receptor 2 Activation, Analytical Biochemistry 290, 378-379 (2001)), and the like. The present inventors tested PAR-2 activation potency by the modified “Hawthorne et al. method”. More specifically the method is to assay intracellular calcium dynamic expressing human PAR-2 inherently. In this assay, under probenecid inhibiting anion-exchange transporter the inventors measured intracellular calcium dynamic mediated PAR-2 agonist(concentration variation) by a multiple-well plate reader wherein introducing Ca^2+ sensitive fluorescent dye and stimulating this cell by PAR-2 agonist.
This method is explained below in more detail.
Thereafter, the cells were stimulated with various concentration test compounds and measured at an excitation wavelength of 485 nm and at a measurement wavelength of 525 nm (cut-off 515 nm) with a fluorometer scanning a multiple well (Flex Station, Molecular Devices). As a comparative compound, SLIGKV-OH which is a known PAR-2 activated peptide was used.

| Molecule | EC50 [µM] |
| --- | --- |
| O=C(CNC(=O)[C@H](CC1CCCCC1)NC(=O)c1ccco1)NCC(=O)N[C@@H](CC1CCCCC1)C(=O)NCCN1CCCCC1 [Example 1, 2-furoyl-β-cyclohexyl-L-alanyl-glycyl-glycyl-β-cyclohexyl-L-alanyine 2-(1-piperidinyl)ethyl amide] (2Furoyl-[Cha]GG[Cha]-{NHCH2CH2(piperidin-1-yl)}) | 16.5 ± 3.4 |
| O=C(CNC(=O)[C@H](Cc1ccccc1)NC(=O)c1ccco1)NCC(=O)N[C@@H](CC1CCCCC1)C(=O)NCCN1CCCCC1 [Example 2, 2-furoyl-L-phenylalanyl-glycyl-glycyl-β-cyclohexyl-L-alanine 2-(1-piperidinyl)ethyl amide] (2Furoyl-FGG[Cha]-{NHCH2CH2(piperidin-1-yl)}) | 2.9 ± 0.6 |
| O=C(CNC(=O)[C@H](CC1CCCCC1)NC(=O)c1ccc(Br)o1)NCC(=O)N[C@@H](CC1CCCCC1)C(=O)NCCN1CCCCC1 [Example 3, 5-bromo-2-furoyl-β-cyclohexyl-L-alanyl-glycyl-glycyl-β-cyclohexyl-L-alanine 2-(1-piperidinyl)ethyl amide] (X2-[Cha]GG[Cha]-{NHCH2CH2(piperidin-1-yl)}) | 0.7 ± 0.2 |
| O=C(CNC(=O)[C@H](CC1CCCCC1)NC(=O)c1cccnc1)NCC(=O)N[C@@H](CC1CCCCC1)C(=O)NCCN1CCCCC1 [Example 4, nicotinoyl-β-cyclohexyl-L-alanyl-glycyl-glycyl-β-cyclohexyl-L-alanine 2-(1-piperidinyl)ethyl amide] (Nicotinoyl-[Cha]GG[Cha]-{NHCH2CH2(piperidin-1-yl)}) | 1.6 ± 0.1 |
| O=C(CNC(=O)[C@H](CC1CCCCC1)NC(=O)c1cc2ccccc2o1)NCC(=O)N[C@@H](CC1CCCCC1)C(=O)NCCN1CCCCC1 [Example 5, benzofuran-2-carbonyl-β-cyclohexyl-L-alanyl-glycyl-glycyl-β-cyclohexyl-L-alanine 2-(1-piperidinyl)ethyl amide] ({Benzofuran(2-CO)}-[Cha]GG[Cha]-{NHCH2CH2(piperidin-1-yl)}) | 0.8 ± 0.2 |
| O=C(CNC(=O)[C@H](CC1CCCCC1)NC(=O)c1ccon1)NCC(=O)N[C@@H](CC1CCCCC1)C(=O)NCCN1CCCCC1 [Example 6, isoxazole-3-carbonyl-β-cyclohexyl-L-alanyl-glycyl-glycyl-β-cyclohexyl-L-alanine 2-(1-piperidinyl)ethyl amide] ({Isoxazole(3-carbonyl)}-[Cha]GG[Cha]-{NHCH2CH2(piperidin-1-yl)}) | 6.6 ± 3.1 |
| O=C(CNC(=O)[C@H](CC1CCCCC1)NC(=O)c1ccccn1)NCC(=O)N[C@@H](CC1CCCCC1)C(=O)NCCN1CCCCC1 [Example 7, picolinoyl-β-cyclohexyl-L-alanyl-glycyl-glycyl-β-cyclohexyl-L-alanine 2-(1-piperidinyl)ethyl amide] (Picolinoyl-[Cha]GG[Cha]-{NHCH2CH2(piperidin-1-yl)}) | 7.6 ± 2.6 |
| O=C(CNC(=O)[C@H](CC1CCCCC1)NC(=O)c1cnc[nH]1)NCC(=O)N[C@@H](CC1CCCCC1)C(=O)NCCN1CCCCC1 [Example 9, imidazole-4-carbonyl-β-cyclohexyl-L-alanyl-glycyl-glycyl-β-cyclohexyl-L-alanine 2-(1-piperidinyl)ethyl amide] (Imidazole4carbonyl-[Cha]GG[Cha]-{NHCH2CH2(piperidin-1-yl)}) | 14.9 ± 1.3 |

Same assay, conditions: HCT-15 cells, calcium assay; statement in words

| Molecule | agonist activation compared with the comparative peptide SLIGKV-OH |
| --- | --- |
| O=C(CNC(=O)[C@H](CC1CCCCC1)NC(=O)c1ccco1)NCC(=O)N[C@@H](CC1CCCCC1)C(=O)NCCN1CCCCC1 [Example 1, 2-furoyl-β-cyclohexyl-L-alanyl-glycyl-glycyl-β-cyclohexyl-L-alanyine 2-(1-piperidinyl)ethyl amide] (2Furoyl-[Cha]GG[Cha]-{NHCH2CH2(piperidin-1-yl)}) | almost same as the comparative peptide |
| Cc1cc(C(=O)N[C@@H](CC2CCCCC2)C(=O)NCC(=O)NCC(=O)N[C@@H](CC2CCCCC2)C(=O)NCCN2CCCCC2)oc1C [Example 8, 4,5-dimethyl-2-furoyl-β-cyclohexyl-L-alanyl-glycyl-glycyl-β-cyclohexyl-L-alanine 2-(1-piperidinyl)ethyl amide] (X1-[Cha]GG[Cha]-{NHCH2CH2(piperidin-1-yl)}) | almost same as the comparative peptide |
| O=C(CNC(=O)[C@H](CC1CCCCC1)NC(=O)c1cnc[nH]1)NCC(=O)N[C@@H](CC1CCCCC1)C(=O)NCCN1CCCCC1 [Example 9, imidazole-4-carbonyl-β-cyclohexyl-L-alanyl-glycyl-glycyl-β-cyclohexyl-L-alanine 2-(1-piperidinyl)ethyl amide] (Imidazole4carbonyl-[Cha]GG[Cha]-{NHCH2CH2(piperidin-1-yl)}) | almost same as the comparative peptide |

Same assay, conditions: HCT-15 human colorectal adenocarcinoma cells expressing PAR-2 inherently; Ca2+ sensitive fluorescent dye, 2.5 mM probenecid; read-out: Agonist activity (EC50)

| EC50 [µM] | Molecule |
| --- | --- |
| 16.5 ± 2.1 | Cc1cc(C(=O)N[C@@H](CC2CCCCC2)C(=O)NCC(=O)NCC(=O)N[C@@H](CC2CCCCC2)C(=O)NCCN2CCCCC2)oc1C [Example 8, 4,5-dimethyl-2-furoyl-β-cyclohexyl-L-alanyl-glycyl-glycyl-β-cyclohexyl-L-alanine 2-(1-piperidinyl)ethyl amide] (X1-[Cha]GG[Cha]-{NHCH2CH2(piperidin-1-yl)}) |

Molecular target: human PAR-2 (Protease-activated receptor-2) (human) (UniProt P55085)
Assay: cell-based or functional assay
Settings: not given

| Molecule | Agonist activity (EC50, µM); intracellular calcium, HCT-15 cells [µM] |
| --- | --- |
| 2-furoyl-L-phenylalanyl-glycyl-glycyl-β-cyclohexyl-L-alanine 2-(1-piperidinyl)ethyl amide (peptide) | 2.9 |
| 2-furoyl-β-cyclohexyl-L-alanyl-glycyl-glycyl-β-cyclohexyl-L-alanine 2-(1-piperidinyl)ethyl amide (peptide) | 16.5 |
| 4,5-dimethyl-2-furoyl-β-cyclohexyl-L-alanyl-glycyl-glycyl-β-cyclohexyl-L-alanine 2-(1-piperidinyl)ethyl amide (peptide) | 16.5 |

The remaining lines, values ahead:

| Agonist activity (EC50, µM); intracellular calcium, HCT-15 cells [µM] | Molecule |
| --- | --- |
| 0.7 | 5-bromo-2-furoyl-β-cyclohexyl-L-alanyl-glycyl-glycyl-β-cyclohexyl-L-alanine 2-(1-piperidinyl)ethyl amide (peptide) |
| 0.8 | benzofuran-2-carbonyl-β-cyclohexyl-L-alanyl-glycyl-glycyl-β-cyclohexyl-L-alanine 2-(1-piperidinyl)ethyl amide (peptide) |
| 14.9 | imidazole-4-carbonyl-β-cyclohexyl-L-alanyl-glycyl-glycyl-β-cyclohexyl-L-alanine 2-(1-piperidinyl)ethyl amide (peptide) |
| 6.6 | isoxazole-3-carbonyl-β-cyclohexyl-L-alanyl-glycyl-glycyl-β-cyclohexyl-L-alanine 2-(1-piperidinyl)ethyl amide (peptide) |
| 1.6 | nicotinoyl-β-cyclohexyl-L-alanyl-glycyl-glycyl-β-cyclohexyl-L-alanine 2-(1-piperidinyl)ethyl amide (peptide) |
| 7.6 | picolinoyl-β-cyclohexyl-L-alanyl-glycyl-glycyl-β-cyclohexyl-L-alanine 2-(1-piperidinyl)ethyl amide (peptide) |

Molecular target: T2, human PAR-2 (Protease-activated …)
Assay: cell-based or functional assay
Settings: not given

| Agonist activity (EC50, µM); intracellular calcium, HCT-15 cells [µM] | Molecule |
| --- | --- |
| 15.6 | SLIGKV-OH [SLIGKV-OH (Ser-Leu-Ile-Gly-Lys-Val-OH)] |

Reference: US7910556B2, “PAR-2 agonist” (Kowa Company, Ltd., priority 2004, dated 2011)
